Results reported in US12297296B2, “Nano small peptide and its use in preparation of drugs for treating and preventing fundus vascular diseases” (FUTU Biotech Co., Ltd., priority 2021, dated 2025).
Where a SMILES comes first, the peptide text is derived from it. [ ]: non-standard residue; d: D form. The star is where a group is joined. ξ: configuration not given here. Palmitoyl = CCCCCCCCCCCCCCCC(=O)*; ξF = NC(Cc1ccccc1)C(=O)O

Columns and labels:
OIR model mice [1] = experiment: Fundus angiogenesis in OIR model, Isolectin B4 confocal detection; format: in vivo, mouse; conditions: for percentage of abnormal blood vessels in the total retinal area (proportion of new blood vessels): 2 nmol injected into the vitreous on day 12, read on day 17
Procedure: Treatment group (OIR): After giving birth, 3-4 month old C57BL/6 mother mice were placed in an oxygen chamber with 75% oxygen together with 7 day old young mice, and the young mice and the mother mice were taken out on the 12th day of birth of the young mice. Immediately after the young mice were anesthetized, 2 nmol of FH, 2 nmol of FG, and 1 μg of Sema4D neutralizing antibody (BMA-12) (BMA-12, i.e., anti-Sema4D) were injected into the vitreous, and an equal volume of DMSO was used as a control. The young mice were then further raised in normal air for 5 days; the young mice were anesthetized on the 17th day of birth, and after cardiac perfusion with normal saline, the eyeballs were separated and then fixed, stained with Isolectin B4 overnight at 4° C., flatly spread on a glass slide, and photographed.
Control group (Normal): Young mice, grown with normoxia, were anesthetized on the 17th day of birth. After cardiac perfusion with normal saline, the eyeballs were taken out, and the retinas were peeled off and then fixed with 4% paraformaldehyde, stained with Isolectin B4 at 4° C. overnight, flatly spread on a glass slide, and photographed.
The results are shown in A in FIGS. 4A and 4B. Laser confocal was carried out to detect retinal angiogenesis, and ImageJ was carried out to calculate the ratio of retinal neovascularization clusters to the entire retinal area, that is, the proportion of new blood vessels. […] It can be seen from FIG. 4A that the treatment effect of FH is the best.

OIR model mice [2] = experiment: Evans blue leakage test, fundus vascular leakage; format: in vivo, mouse; conditions: 2 nmol intravitreal
[3] = tested on: mouse brain microvascular endothelial cells; experiment: Endothelial cell leakage (transmembrane resistance); format: cell-based; conditions: 20 μM, 36 h; for sSema4D-induced endothelial cell leakage: sSema4D 1600 ng/mL
Procedure: A layer of fibronectin was first applied to coat the upper layer of a 24-well transwell chamber (0.4 um) and incubated at room temperature for 1 h; after coating, the mouse brain microvascular endothelial cells were seeded, and cultured for 5 days until the cells were full, and then FH (20 μM), FG (20 μM), and Sema4D neutralizing antibody (BMA-12) (2 μg/μL) were added to the medium (the concentration of sSema4D in the medium was 1600 ng/mL), respectively. An equal volume of DMSO was added as a control, and ECM was used as a blank control. After incubation for 36 h, the resistance value was measured by a cell transmembrane resistance measuring instrument.

sSema4D [4] = target: T1, sSema4D (Mus musculus, UniProt O09126); experiment: CD spectra of nanoparticles before and after induction by sSema4D protein; format: physicochemical; parameters: the free Sema4D protein after enzyme cleavage of Sema4D, that is, the sSema4D protein purchased from R&D Systems Company; purchased R&D Systems; conditions: 20 μM; for CD secondary structure before induction by sSema4D protein: H2O containing 0.5% dimethyl sulfoxide, signal at 200 nm negative; for CD secondary structure after induction by sSema4D protein: signal at 200 nm positive, negative signal at 220 nm
T1 sequence (O09126 24-733 limits assumed): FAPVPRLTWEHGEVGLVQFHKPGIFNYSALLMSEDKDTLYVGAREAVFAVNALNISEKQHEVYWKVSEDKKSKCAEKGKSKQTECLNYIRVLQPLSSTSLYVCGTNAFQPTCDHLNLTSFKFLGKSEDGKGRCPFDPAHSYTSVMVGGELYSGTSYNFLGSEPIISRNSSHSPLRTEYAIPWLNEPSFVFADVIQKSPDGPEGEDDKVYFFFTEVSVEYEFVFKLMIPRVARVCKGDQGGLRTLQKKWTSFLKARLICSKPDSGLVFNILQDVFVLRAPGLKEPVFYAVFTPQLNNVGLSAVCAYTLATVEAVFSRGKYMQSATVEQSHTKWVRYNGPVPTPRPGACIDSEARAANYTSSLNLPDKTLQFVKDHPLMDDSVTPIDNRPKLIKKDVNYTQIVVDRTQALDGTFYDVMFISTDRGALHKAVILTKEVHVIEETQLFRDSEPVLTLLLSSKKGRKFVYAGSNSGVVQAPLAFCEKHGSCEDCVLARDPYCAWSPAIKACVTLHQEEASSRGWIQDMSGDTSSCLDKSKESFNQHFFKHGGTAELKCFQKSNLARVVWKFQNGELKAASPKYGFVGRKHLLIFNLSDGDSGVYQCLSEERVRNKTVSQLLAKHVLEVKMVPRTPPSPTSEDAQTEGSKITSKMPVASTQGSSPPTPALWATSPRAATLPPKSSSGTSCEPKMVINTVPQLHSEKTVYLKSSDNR
Procedure: First, FG and FH nanoparticle solutions with a concentration of 20 μM were prepared as follows. 0.01 mmol of FG (or FH) was weighed and dissolved in 1 mL of DMSO solution, and then diluted into 5 folds to a concentration of 2 mM, thus obtaining mother solution A. 10 μL of mother solution A was quickly added to 1 mL of water, and the resulting solution was then vortexed for 30 s to obtain a nanoparticle solution. Second, samples were made. 10 ul of FG (or FH) solution was added dropwise onto a copper mesh for 5 min, and the excess solution was removed with filter paper. 10 μL of uranyl acetate stain was added dropwise for 5 min, and the excess stain was removed with filter paper. Washing with 10 μl of deionized water was carried out once. The samples were dried in vacuum overnight. Finally, transmission electron microscopy observations were performed on an HT-7700 transmission electron microscope (Hitachi, Tokyo, Japan). Scale bar was 200 nm.
The CD spectra of FH and FG nanoparticles (20 μM) were collected at room temperature using a CD spectrometer (JASCO-1500, Tokyo, Japan) with an optical path length of 1 mm. Measurements were performed between 190 nm and 300 nm with a resolution of 1.0 nm at a scan speed of 300 nm/min. For each measurement, three spectra were collected and averaged.

sSema4D [5] = target: T1, sSema4D; experiment: sSema4D concentration in endothelial cell culture supernatant (ELISA); format: cell-based; parameters: the free Sema4D protein after enzyme cleavage of Sema4D, that is, the sSema4D protein purchased from R&D Systems Company; purchased R&D Systems; conditions: endothelial cells; for sSema4D concentration over the time course: 20 μM, 12, 24, 36, and 48 h; for sSema4D concentration: sSema4D 1600 ng/mL, peptide 20 μM, antibody 2 μg/μL
Procedure: Endothelial cells were uniformly seeded in 6-well cell culture plates and cultured in a 5% CO2 incubator at 37° C. for 24 h. The nano small peptides FH, FG, DMSO, and Sema4D neutralizing antibody (BMA-12) were added to the medium (the concentration of sSema4D in the medium was 1600 ng/mL) to ensure that the final concentration of FH and FG was 20 μM, and the final concentration of the sSema4D neutralizing antibody (BMA-12) was 2 μg/μL, an equal volume of DMSO was then added as a control, and the culture plates were cultured in an incubator for 12, 24, 36, and 48 h, respectively. The cell culture medium was then collected and centrifuged. The supernatant was taken and the expression of Sema4D protein in the supernatant was detected using an ELISA kit (Shanghai Yuanmu Biotechnology Co., Ltd.).

SMILES	percentage of abnormal blood vessels in the total retinal area (proportion of new blood vessels) (OIR model mice [1])	treatment effect on fundus angiogenesis compared with Sema4D neutralizing antibody (BMA-12, 1 μg) (OIR model mice [1]; 2 nmol intravitreal)	treatment effect on fundus angiogenesis, ranking among treatments (FIG. 4A) (OIR model mice [1]; 2 nmol intravitreal)	treatment effect on fundus vascular leakage compared with anti-Sema4D (1 μg) (OIR model mice [2])	vascular leakage of the fundus (OIR model mice [2])	effect on endothelial cell leakage compared with Sema4D neutralizing antibody (BMA-12, 2 μg/μL) [3]	sSema4D-induced endothelial cell leakage [3]	CD secondary structure before induction by sSema4D protein (sSema4D [4])	CD secondary structure after induction by sSema4D protein (sSema4D [4])	sSema4D concentration over the time course (sSema4D [5])	sSema4D concentration (sSema4D [5]; 24 h)	sSema4D concentration (sSema4D [5]; 36 h)	effect on sSema4D concentration compared with FG (sSema4D [5]; within the same action time)
CCCCCCCCCCCCCCCC(=O)NC(Cc1ccccc1)C(=O)N[C@@H](Cc1ccccc1)C(=O)N[C@H](C(=O)N[C@@H](CC(C)C)C(=O)N[C@@H](CCCCN)C(=O)N[C@@H](CCCCN)C(=O)N[C@@H](CCC(N)=O)C(=O)N[C@@H](CCCCN)C(=O)N[C@@H](CCCNC(=N)N)C(=O)N1CCC[C@H]1C(=O)N[C@@H](CCCNC(=N)N)C(=O)N[C@@H](Cc1c[nH]cn1)C(=O)O)C(C)C (stereo in doubt) [FH, hexadecanoyl-FFVLK-KQKRPRH]	reduce the percentage of abnormal blood vessels in the total retinal area	comparable	the best	comparable	can inhibit vascular leakage of the fundus	comparable	significantly inhibit	random coil structure	transition to a β-sheet folded structure	can sustainably reduce the concentration of sSema4D	can reduce the sSema4D concentration	can still reduce the sSema4D concentration	better than that of FG
CCCCCCCCCCCCCCCC(=O)NC(Cc1ccccc1)C(=O)N[C@@H](Cc1ccccc1)C(=O)N[C@H](C(=O)N[C@@H](CC(C)C)C(=O)N[C@@H](CCCCN)C(=O)N[C@@H](CCCCN)C(=O)N[C@@H](CC(N)=O)C(=O)N[C@@H](CCCCN)C(=O)N[C@@H](C)C(=O)N[C@@H](C)C(=O)N[C@@H](CCCCN)C(=O)NCC(=O)O)C(C)C (stereo partly shown) [FG] (Palmitoyl-[ξF]FVLKKNKAAKG-OH)	reduce the percentage of abnormal blood vessels in the total retinal area	comparable		comparable	can inhibit vascular leakage of the fundus	comparable	significantly inhibit	random coil structure	transition to a β-sheet folded structure	can sustainably reduce the concentration of sSema4D			
